Laboratory results from ChEMBL document CHEMBL4507310, “Data for DCP probe A-1211212” (2021).

Assays:
[1] = molecular target: Adenosine receptor A2b (Homo sapiens) (UniProt P29275); assay: A2B (h) Eurofins-Cerep binding assay; set-up: ligand concentration 5 nM; settings: filed as antagonist, Compound concentration 10.0 uM
[2] = molecular target: D(2) dopamine receptor (Homo sapiens) (UniProt P14416); assay: D2S (h) Eurofins-Cerep binding assay; set-up: ligand concentration 0.3 nM; settings: filed as antagonist, Compound concentration 10.0 uM
[3] = molecular target: Substance-K receptor (Homo sapiens) (UniProt P21452); assay: NK2 (h) Eurofins-Cerep binding assay; set-up: ligand concentration 0.1 nM; settings: filed as agonist, Compound concentration 10.0 uM
[4] = molecular target: Vasoactive intestinal polypeptide receptor 1 (Homo sapiens) (UniProt P32241); assay: VPAC1 (VIP1) (h) Eurofins-Cerep binding assay; set-up: ligand concentration 0.04 nM; settings: filed as agonist, Compound concentration 10.0 uM
[5] = system: Tyrosine-protein kinase ABL1 (Homo sapiens), P00519 [H396P]; settings: Compound concentration 1000.0 nM
[6] = system: Tyrosine-protein kinase ABL1 (Homo sapiens), P00519 [M351T]; settings: Compound concentration 1000.0 nM
[7] = system: Tyrosine-protein kinase ABL1 (Homo sapiens), P00519 [Q252H]; settings: Compound concentration 1000.0 nM
[8] = molecular target: Activin receptor type-2A (Homo sapiens) (UniProt P27037); settings: Compound concentration 1000.0 nM
[9] = system: ALK tyrosine kinase receptor (Homo sapiens), Q9UM73 [C1156Y]; settings: Compound concentration 1000.0 nM
[10] = molecular target: Aurora kinase B (Homo sapiens) (UniProt Q96GD4); settings: Compound concentration 1000.0 nM
[11] = molecular target: Tyrosine-protein kinase Blk (Homo sapiens) (UniProt P51451); settings: Compound concentration 1000.0 nM
[12] = system: Serine/threonine-protein kinase B-raf (Homo sapiens), P15056 [V600E]; settings: Compound concentration 1000.0 nM
[13] = molecular target: Calcium/calmodulin-dependent protein kinase type II subunit gamma (Homo sapiens) (UniProt Q13555); settings: Compound concentration 1000.0 nM
[14] = molecular target: Death-associated protein kinase 2 (Homo sapiens) (UniProt Q9UIK4); settings: Compound concentration 1000.0 nM
[15] = molecular target: Mitogen-activated protein kinase kinase kinase 12 (Homo sapiens) (UniProt Q12852); settings: Compound concentration 1000.0 nM
[16] = molecular target: Ephrin type-A receptor 4 (Homo sapiens) (UniProt P54764); settings: Compound concentration 1000.0 nM
[17] = molecular target: Mitogen-activated protein kinase 6 (Homo sapiens) (UniProt Q16659); settings: Compound concentration 1000.0 nM
[18] = molecular target: Serine/threonine-protein kinase/endoribonuclease IRE1 (Homo sapiens) (UniProt O75460); settings: Compound concentration 1000.0 nM
[19] = molecular target: Focal adhesion kinase 1 (Homo sapiens) (UniProt Q05397); settings: Compound concentration 1000.0 nM
[20] = molecular target: Homeodomain-interacting protein kinase 3 (Homo sapiens) (UniProt Q9H422); settings: Compound concentration 1000.0 nM
[21] = molecular target: Tyrosine-protein kinase JAK2 (Homo sapiens) (UniProt O60674); settings: Compound concentration 1000.0 nM
[22] = molecular target: Tyrosine-protein kinase Lck (Homo sapiens) (UniProt P06239); settings: Compound concentration 1000.0 nM
[23] = molecular target: Serine/threonine-protein kinase NLK (Homo sapiens) (UniProt Q9UBE8); settings: Compound concentration 1000.0 nM
[24] = molecular target: Platelet-derived growth factor receptor alpha (Homo sapiens) (UniProt P16234); settings: Compound concentration 1000.0 nM
[25] = molecular target: Platelet-derived growth factor receptor beta (Homo sapiens) (UniProt P09619); settings: Compound concentration 1000.0 nM
[26] = molecular target: Phosphatidylinositol 4-phosphate 3-kinase C2 domain-containing subunit beta (Homo sapiens) (UniProt O00750); settings: Compound concentration 1000.0 nM
[27] = system: Phosphatidylinositol 4,5-bisphosphate 3-kinase catalytic subunit alpha isoform (Homo sapiens), P42336 [C420R]; settings: Compound concentration 1000.0 nM
[28] = molecular target: Serine/threonine-protein kinase pim-2 (Homo sapiens) (UniProt Q9P1W9); settings: Compound concentration 1000.0 nM
[29] = molecular target: Serine/threonine-protein kinase N1 (Homo sapiens) (UniProt Q16512); settings: Compound concentration 1000.0 nM
[30] = molecular target: Serine/threonine-protein kinase N2 (Homo sapiens) (UniProt Q16513); settings: Compound concentration 1000.0 nM
[31] = molecular target: Ribosomal protein S6 kinase beta-1 (Homo sapiens) (UniProt P23443); settings: Compound concentration 1000.0 nM
[32] = molecular target: Serine/threonine-protein kinase Sgk1 (Homo sapiens) (UniProt O00141); settings: Compound concentration 1000.0 nM
[33] = molecular target: Serine/threonine-protein kinase Sgk3 (Homo sapiens) (UniProt Q96BR1); settings: Compound concentration 1000.0 nM
[34] = molecular target: Serine/threonine-protein kinase 16 (Homo sapiens) (UniProt O75716); settings: Compound concentration 1000.0 nM
[35] = molecular target: TGF-beta receptor type-2 (Homo sapiens) (UniProt P37173); settings: Compound concentration 1000.0 nM
[36] = molecular target: 5-hydroxytryptamine receptor 1D (Homo sapiens) (UniProt P28221); settings: Compound concentration 10.0 uM
[37] = molecular target: 5-hydroxytryptamine receptor 1E (Homo sapiens) (UniProt P28566); settings: Compound concentration 10.0 uM
[38] = molecular target: T1, Muscarinic acetylcholine receptor M5 (Homo sapiens) (UniProt P08912); settings: Compound concentration 10.0 uM
T1 sequence (whole entry): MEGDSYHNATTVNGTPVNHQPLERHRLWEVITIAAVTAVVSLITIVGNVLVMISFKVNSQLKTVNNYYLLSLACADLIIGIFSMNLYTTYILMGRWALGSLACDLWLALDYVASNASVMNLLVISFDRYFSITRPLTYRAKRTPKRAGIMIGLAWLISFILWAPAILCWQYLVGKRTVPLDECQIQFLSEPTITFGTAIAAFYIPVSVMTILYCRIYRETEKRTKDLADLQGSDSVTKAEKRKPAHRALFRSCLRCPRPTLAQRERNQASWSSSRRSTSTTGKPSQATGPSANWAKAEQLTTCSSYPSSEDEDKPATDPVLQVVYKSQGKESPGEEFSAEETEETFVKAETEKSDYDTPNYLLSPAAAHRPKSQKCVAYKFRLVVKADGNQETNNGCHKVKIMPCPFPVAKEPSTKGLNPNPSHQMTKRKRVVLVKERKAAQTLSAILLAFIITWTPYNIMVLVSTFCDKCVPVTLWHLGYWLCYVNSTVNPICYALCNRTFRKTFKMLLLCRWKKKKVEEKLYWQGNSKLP

Mitogen-activated protein kinase kinase kinase 12 (Homo sapiens), sequence (Q12852 whole entry): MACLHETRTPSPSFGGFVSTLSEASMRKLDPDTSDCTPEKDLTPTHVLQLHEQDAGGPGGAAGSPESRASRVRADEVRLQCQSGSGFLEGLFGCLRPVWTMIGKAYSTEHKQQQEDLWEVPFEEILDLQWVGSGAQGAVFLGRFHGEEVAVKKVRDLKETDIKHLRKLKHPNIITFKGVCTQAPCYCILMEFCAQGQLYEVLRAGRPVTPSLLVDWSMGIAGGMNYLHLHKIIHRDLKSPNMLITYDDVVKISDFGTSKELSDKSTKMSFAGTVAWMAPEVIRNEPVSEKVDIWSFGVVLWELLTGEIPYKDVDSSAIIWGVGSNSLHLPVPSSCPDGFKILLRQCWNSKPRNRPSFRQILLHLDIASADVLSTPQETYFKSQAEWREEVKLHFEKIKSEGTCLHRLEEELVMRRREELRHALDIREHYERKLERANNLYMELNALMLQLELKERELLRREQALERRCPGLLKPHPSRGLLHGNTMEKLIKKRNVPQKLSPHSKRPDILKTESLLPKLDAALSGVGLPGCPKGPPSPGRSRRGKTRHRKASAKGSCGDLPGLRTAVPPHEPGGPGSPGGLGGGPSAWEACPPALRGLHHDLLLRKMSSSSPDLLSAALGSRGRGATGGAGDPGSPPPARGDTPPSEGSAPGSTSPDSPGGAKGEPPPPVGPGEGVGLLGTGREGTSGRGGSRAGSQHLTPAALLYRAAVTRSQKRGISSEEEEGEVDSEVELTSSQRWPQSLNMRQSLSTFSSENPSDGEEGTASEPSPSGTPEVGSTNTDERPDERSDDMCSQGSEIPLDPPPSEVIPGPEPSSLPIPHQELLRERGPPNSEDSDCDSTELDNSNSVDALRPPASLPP
Homeodomain-interacting protein kinase 3 (Homo sapiens), sequence (Q9H422 whole entry, looked up): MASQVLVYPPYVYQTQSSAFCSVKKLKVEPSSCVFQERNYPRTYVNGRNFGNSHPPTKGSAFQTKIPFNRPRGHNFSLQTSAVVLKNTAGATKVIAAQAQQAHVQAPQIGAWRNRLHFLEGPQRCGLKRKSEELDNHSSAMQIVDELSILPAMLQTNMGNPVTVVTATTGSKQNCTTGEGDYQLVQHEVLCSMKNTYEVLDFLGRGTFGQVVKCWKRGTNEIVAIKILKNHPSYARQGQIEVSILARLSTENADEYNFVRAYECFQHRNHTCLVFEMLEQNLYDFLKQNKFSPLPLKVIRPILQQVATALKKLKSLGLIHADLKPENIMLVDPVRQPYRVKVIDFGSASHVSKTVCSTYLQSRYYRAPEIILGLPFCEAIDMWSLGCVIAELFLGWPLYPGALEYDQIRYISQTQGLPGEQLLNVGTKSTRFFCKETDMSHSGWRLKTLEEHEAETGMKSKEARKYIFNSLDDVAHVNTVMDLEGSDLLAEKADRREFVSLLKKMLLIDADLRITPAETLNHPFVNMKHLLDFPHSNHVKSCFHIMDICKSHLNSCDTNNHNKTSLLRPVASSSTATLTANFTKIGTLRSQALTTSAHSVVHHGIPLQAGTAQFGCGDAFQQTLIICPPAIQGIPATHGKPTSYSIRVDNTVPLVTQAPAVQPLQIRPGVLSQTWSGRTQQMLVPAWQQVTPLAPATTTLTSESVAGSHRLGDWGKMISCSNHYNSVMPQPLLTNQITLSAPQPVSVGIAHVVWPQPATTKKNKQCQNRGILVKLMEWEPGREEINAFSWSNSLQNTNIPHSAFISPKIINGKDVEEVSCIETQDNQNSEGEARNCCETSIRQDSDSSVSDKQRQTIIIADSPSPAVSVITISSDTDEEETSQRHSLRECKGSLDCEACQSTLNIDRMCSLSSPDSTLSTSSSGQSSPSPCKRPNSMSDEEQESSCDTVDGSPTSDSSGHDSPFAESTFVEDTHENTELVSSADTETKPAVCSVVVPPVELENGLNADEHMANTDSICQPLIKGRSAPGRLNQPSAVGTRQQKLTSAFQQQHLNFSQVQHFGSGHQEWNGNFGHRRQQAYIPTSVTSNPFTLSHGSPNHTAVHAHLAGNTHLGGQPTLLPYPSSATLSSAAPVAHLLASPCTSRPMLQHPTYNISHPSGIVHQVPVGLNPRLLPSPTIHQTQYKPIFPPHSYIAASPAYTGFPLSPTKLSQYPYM
Platelet-derived growth factor receptor beta (Homo sapiens), sequence (P09619 whole entry, the tested form may be a part): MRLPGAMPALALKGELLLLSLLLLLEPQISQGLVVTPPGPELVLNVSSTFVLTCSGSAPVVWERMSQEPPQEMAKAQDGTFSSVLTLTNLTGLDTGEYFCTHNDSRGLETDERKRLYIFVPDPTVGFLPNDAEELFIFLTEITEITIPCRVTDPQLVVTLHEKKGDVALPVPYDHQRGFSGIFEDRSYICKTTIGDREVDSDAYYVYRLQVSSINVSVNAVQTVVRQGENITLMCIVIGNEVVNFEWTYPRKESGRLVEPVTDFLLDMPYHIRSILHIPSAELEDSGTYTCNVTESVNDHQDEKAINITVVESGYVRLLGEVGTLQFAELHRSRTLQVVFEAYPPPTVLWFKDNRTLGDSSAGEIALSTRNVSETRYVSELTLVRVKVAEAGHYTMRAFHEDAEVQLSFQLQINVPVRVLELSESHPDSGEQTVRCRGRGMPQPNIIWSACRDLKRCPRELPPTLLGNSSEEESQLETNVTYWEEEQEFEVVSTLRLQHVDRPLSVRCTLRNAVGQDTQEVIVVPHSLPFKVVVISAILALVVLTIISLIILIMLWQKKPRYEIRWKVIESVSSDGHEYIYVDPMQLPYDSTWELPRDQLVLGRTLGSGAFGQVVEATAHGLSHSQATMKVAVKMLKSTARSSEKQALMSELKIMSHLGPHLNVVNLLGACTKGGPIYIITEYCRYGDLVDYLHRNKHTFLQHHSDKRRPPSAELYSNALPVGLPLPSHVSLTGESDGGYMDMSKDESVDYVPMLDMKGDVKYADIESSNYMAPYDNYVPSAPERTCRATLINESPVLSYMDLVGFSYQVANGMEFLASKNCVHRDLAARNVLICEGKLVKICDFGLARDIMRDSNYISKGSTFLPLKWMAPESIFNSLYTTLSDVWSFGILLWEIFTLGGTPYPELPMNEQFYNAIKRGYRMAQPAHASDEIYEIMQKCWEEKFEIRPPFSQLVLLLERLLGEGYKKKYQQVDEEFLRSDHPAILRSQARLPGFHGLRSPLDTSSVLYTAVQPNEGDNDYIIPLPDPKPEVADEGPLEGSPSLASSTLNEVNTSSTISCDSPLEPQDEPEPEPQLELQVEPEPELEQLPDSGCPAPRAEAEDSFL
Phosphatidylinositol 4-phosphate 3-kinase C2 domain-containing subunit beta (Homo sapiens), sequence (O00750 whole entry, the tested form may be a part, canonical isoform): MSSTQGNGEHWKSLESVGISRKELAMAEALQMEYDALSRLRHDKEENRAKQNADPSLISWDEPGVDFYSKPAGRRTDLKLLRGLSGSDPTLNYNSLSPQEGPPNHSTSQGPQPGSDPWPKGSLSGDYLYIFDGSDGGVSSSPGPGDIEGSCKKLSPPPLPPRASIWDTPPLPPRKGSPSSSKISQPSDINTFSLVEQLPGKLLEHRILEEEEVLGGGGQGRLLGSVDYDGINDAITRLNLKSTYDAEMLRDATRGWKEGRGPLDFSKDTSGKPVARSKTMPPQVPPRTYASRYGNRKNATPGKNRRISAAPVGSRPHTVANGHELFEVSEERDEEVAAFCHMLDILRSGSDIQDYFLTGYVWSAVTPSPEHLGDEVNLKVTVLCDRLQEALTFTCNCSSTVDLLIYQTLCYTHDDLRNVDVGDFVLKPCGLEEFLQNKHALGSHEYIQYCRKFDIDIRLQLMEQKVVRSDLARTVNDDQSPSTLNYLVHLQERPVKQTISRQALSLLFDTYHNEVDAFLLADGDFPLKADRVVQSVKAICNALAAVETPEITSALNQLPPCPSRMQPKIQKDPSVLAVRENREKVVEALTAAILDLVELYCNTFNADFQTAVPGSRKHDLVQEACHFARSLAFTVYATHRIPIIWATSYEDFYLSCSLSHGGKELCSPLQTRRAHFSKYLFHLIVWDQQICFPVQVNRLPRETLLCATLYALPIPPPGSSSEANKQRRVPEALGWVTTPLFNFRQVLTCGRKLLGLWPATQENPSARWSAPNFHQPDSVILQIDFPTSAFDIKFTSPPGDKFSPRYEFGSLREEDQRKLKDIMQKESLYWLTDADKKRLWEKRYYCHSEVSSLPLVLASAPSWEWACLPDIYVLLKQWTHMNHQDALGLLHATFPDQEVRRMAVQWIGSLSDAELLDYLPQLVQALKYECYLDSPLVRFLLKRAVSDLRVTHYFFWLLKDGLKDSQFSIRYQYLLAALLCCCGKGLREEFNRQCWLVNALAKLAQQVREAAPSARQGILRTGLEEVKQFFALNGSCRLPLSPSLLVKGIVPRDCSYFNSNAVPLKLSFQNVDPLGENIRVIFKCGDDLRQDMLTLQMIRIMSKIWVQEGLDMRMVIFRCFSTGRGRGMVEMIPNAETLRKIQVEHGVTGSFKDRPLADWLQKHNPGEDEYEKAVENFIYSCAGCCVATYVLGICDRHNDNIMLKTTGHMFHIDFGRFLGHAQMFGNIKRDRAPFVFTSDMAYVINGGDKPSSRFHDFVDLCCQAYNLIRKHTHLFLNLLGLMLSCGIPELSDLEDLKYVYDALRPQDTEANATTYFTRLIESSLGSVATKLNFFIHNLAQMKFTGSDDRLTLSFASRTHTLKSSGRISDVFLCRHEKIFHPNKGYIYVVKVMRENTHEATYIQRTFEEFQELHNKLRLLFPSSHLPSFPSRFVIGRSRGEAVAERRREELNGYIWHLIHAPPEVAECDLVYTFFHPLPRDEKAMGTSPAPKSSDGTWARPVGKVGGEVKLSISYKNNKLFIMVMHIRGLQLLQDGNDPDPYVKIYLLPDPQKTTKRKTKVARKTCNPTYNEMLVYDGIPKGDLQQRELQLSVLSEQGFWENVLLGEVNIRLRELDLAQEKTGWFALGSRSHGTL
Serine/threonine-protein kinase 16 (Homo sapiens), sequence (O75716 whole entry): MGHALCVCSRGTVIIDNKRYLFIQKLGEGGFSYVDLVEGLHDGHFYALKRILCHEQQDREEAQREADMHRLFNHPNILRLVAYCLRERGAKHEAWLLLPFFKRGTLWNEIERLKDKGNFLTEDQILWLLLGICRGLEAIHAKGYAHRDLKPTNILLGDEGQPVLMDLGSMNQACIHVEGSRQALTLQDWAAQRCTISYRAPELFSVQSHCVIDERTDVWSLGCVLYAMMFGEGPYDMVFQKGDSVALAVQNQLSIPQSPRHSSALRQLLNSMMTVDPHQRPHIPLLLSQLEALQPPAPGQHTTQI

Row | Compound | % Inhibition of Control Specific Binding (Mean n=2) [1] [%] | % Inhibition of Control Specific Binding (Mean n=2) [2] [%] | % Inhibition of Control Specific Binding (Mean n=2) [3] [%] | % Inhibition of Control Specific Binding (Mean n=2) [4] [%] | residual activity [5] [%] | residual activity [6] [%] | residual activity [7] [%] | residual activity [8] [%] | residual activity [9] [%] | residual activity [10] [%] | residual activity [11] [%] | residual activity [12] [%] | residual activity [13] [%] | residual activity [14] [%] | residual activity [15] [%] | residual activity [16] [%] | residual activity [17] [%] | residual activity [18] [%] | residual activity [19] [%] | residual activity [20] [%] | other results
1 | O=C(NS(=O)(=O)c1ccc(NCC2CCOCC2)c([N+](=O)[O-])c1)c1ccc(N2CCN(Cc3ccc(C(F)(F)F)cc3-c3ccc(Cl)cc3)CC2)cc1Oc1cnc2[nH]ccc2c1 [A-1210227] | -10.1 | 15.2 | -2.4 | -57.7 | 94 | 100 | 100 | 93 | 100 | 100 | 84 | 83 | 88 | 85 | 100 | 100 | 100 | 90 | 100 | 100 | residual activity [21]: 90%; residual activity [22]: 100%; residual activity [23]: 93%; residual activity [24]: 100%; residual activity [25]: 100%; residual activity [26]: 83%; residual activity [27]: 81%; residual activity [28]: 73%; residual activity [29]: 100%; residual activity [30]: 93%; residual activity [31]: 81%; residual activity [32]: 88%; residual activity [33]: 92%; residual activity [34]: 91%; residual activity [35]: 76%; inhibition [36]: -6.27%; inhibition [37]: 10.4%; inhibition [38]: 10%
2 | CO[C@H]1CC[C@H](CNc2ccc(S(=O)(=O)NC(=O)c3ccc(N4CCN(CC5=C(c6ccc(Cl)cc6)CC(C)(C)CC5)CC4)cc3Oc3cnc4[nH]ccc4c3)cc2[N+](=O)[O-])CC1 [A-1211212] | -36.3 | 10.3 | -6.1 | -26.6 | 92 | 85 | 81 | 91 | 100 | 100 | 76 | 93 | 75 | 75 | 100 | 88 | 81 | 89 | 100 | 100 | residual activity [21]: 89%; residual activity [22]: 73%; residual activity [23]: 100%; residual activity [24]: 100%; residual activity [25]: 99%; residual activity [26]: 92%; residual activity [27]: 75%; residual activity [28]: 88%; residual activity [29]: 83%; residual activity [30]: 97%; residual activity [31]: 86%; residual activity [32]: 100%; residual activity [33]: 99%; residual activity [34]: 79%; residual activity [35]: 74%; inhibition [36]: 8.17%; inhibition [37]: -1.62%; inhibition [38]: 12.5%
